We go through ten molecules from patent US20250311689A1, “SEEDLING GERMINATION AND GROWTH CONDITIONS” (PIONEER HI-BRED INTERNATIONAL, INC., priority 2022, published 2025).

“And” between values parts separate entries of the source, which are not always exact repeats. Equal values may be shown once.

The test system of assay [1] is Pioneer inbred GR0112 seedlings / leaf segments. The assay is described as follows: Norflurazon (abscisic acid biosynthesis inhibitor) seedling pre-treatment, leaf transformation (Table 28). The assay is classed as in vivo, maize. The settings on record: for # culture response (2 wk): 2 weeks after infection.
The test system of assay [2] is Pioneer inbred ED85E seedlings / leaf segments. The assay is described as follows: Gibberellic acid inhibitor seedling pre-treatment, leaf transformation (Table 24). Format: in vivo, maize.
For assay [3] the test system is unchanged. The assay is described as follows: Cytokinin seedling pre-treatment, leaf transformation (Table 25). The assay is classed as in vivo, maize. Conditions: for # T0 plants / # culture response (2 wk) / # culture response (4 wk) / T-DNA score (0-5) / TXN %: 21 seedlings, PHP97334.
For assay [4], the system named is teff (Eragrostis tef) seedlings. The assay is described as follows: Ancymidol pre-treatment during seed germination and seedling growth, teff. The assay is classed as in vivo.
Assay [5] has as its system maize inbred seedlings with pre-integrated target site 45 / leaf segments. Kind of assay: Seedling pre-treatment with ancymidol, Agrobacterium-mediated site-specific integration (Table 22). Format: in vivo. The settings on record: 90AE medium (900 + 2 mg/l ancymidol); 30 seedlings; PHP90842:PHP93925 9:1; no untreated comparison.
In assay [6] the test system is pearl millet (Pennisetum glaucum) seedlings. The assay is described as follows: Ancymidol pre-treatment during seed germination and seedling growth, pearl millet. Format: in vivo.
In assay [7] the test system is Japonica rice (Oryza sativa var Kitaake) seedlings. The assay is described as follows: Ancymidol pre-treatment during seed germination and seedling growth, rice. The assay is classed as in vivo.
The test system of assay [8] is Pioneer inbred GR0112 seedlings / leaf segments. Kind of assay: Fipexide seedling pre-treatment, leaf transformation (Table 26). Format: in vivo, maize. Conditions: for # culture response (2 wk) / # culture response (4 wk) / T-DNA score (0-5): 42 seedlings, PHP96277; for increase of total somatic embryo (SE) number relative to the control treatment: within the first four weeks of culture, per 42 starting seedlings.

Assay [9] has as its system Pioneer inbred ED85E and GR013D seedlings / leaf segments. The assay is described as follows: Sugar (maltose) seedling pre-treatment, leaf transformation (Table 27). The assay is classed as in vivo, maize.
Where [10] appears, read: 1 mg/l in 90AE medium (+ 2 mg/l ancymidol).
The mark [11] stands for this setting: 3 mg/l in 90AE medium (+ 2 mg/l ancymidol).
[12] abbreviates: 900 medium plus 2 mg/l ancymidol.
Setting [13] is: 2 mg/l in 900 germination medium, 24 seedlings, PHP101093.
Where [14] appears, read: 4 mg/l in 900 germination medium, 24 seedlings, PHP101093.
The mark [15] stands for this setting: 6 mg/l in 900 germination medium, 24 seedlings, PHP101093.
[16] abbreviates: 250 mg/l in 90AO medium (900 + 1 mg/l ancymidol), 30 seedlings, PHP97334.
Where [17] appears, read: 500 mg/l in 90AO medium (900 + 1 mg/l ancymidol), 30 seedlings, PHP97334.
Setting [18] is: 4.75 mg/l in 90AE medium (+ 2 mg/l ancymidol).
Setting [19] is: 9.5 mg/l in 90AE medium (+ 2 mg/l ancymidol).
Where [20] appears, read: 19 mg/l in 90AE medium (+ 2 mg/l ancymidol).
[21] abbreviates: 0.1 mg/l in 90AE medium (+ 2 mg/l ancymidol).
[22] abbreviates: 0.5 mg/l in 90AE medium (+ 2 mg/l ancymidol).
The mark [23] stands for this setting: 20 mg/l maltose in place of sucrose, 90AE medium, second replicate (inbred GR013D), 30 seedlings, PHP104215.
Setting [24] is: 5 mg/l in 90AE medium (+ 2 mg/l ancymidol).

`CNc1cnn(-c2cccc(C(F)(F)F)c2)c(=O)c1Cl` [norflurazon]: the “improvement of T0 Txn % relative to the control treatment” value in assay [1] (0.1 mg/l norflurazon, inbred GR0112, within the first two weeks of culture after Agrobacterium infection) stood at 1.1 fold. Also, the “T-DNA score (0-5)” value amounted to 4 in [1] (norflurazon 0.1 mg/l in 90AE germination medium, inbred GR0112); 1.5 in assay [1] (norflurazon 1 mg/l in 90AE germination medium, inbred GR0112); 2 in assay [1] (norflurazon 3 mg/l in 90AE germination medium, inbred GR0112). The “# culture response (2 wk)” value stood at 350 in [1] (norflurazon 0.1 mg/l, 22 seedlings); 19 in assay [1] (norflurazon 1 mg/l, 7 seedlings); 45 in [1] (norflurazon 3 mg/l, 7 seedlings).
On to `CN(C)NC(=O)CCC(=O)O` [Daminozide, daminozide], for which, in [2] (in vivo), the “# T0 plants” value is 71 and 41 and 53; the “# culture response (2 wk)” value is 87 and 103 and 70; the “# culture response (4 wk)” value was 99 and 103 and 95; the “T0 transformation frequencies relative to the control treatment” value is reported as “increase”. Moreover, in [2] (in vivo), the “T-DNA score (0-5)” value is on record as 4; the TXN % is 355% and 205% and 265%; the “trend in the T0 transformation data” value was “no clear trend”.
Regarding trans-zeatin, in [3] (1 mg/l), the “increase of T0 Txn % relative to the control seedling germination medium with no cytokinin” value was 1.2 fold. Besides, in assay [3] (setting [10]), the “# T0 plants” value stood at 102, the “# culture response (2 wk)” value stood at 196, the “# culture response (4 wk)” value is 177 and the “T-DNA score (0-5)” value is on record as 4. The TXN % in assay [3] (setting [10]) amounted to 486%. The “increase of T0 Txn % relative to the control seedling germination medium with no cytokinin” value in assay [3] (3 mg/l) was 1.5 fold. In [3] (setting [11]), the “# T0 plants” value turned out to be 130, the “# culture response (2 wk)” value is 192, the “# culture response (4 wk)” value stood at 222 and the “T-DNA score (0-5)” value is 4. Further, the TXN % in assay [3] (setting [11]) was found to be 619%.
Regarding `COc1ccc(C(O)(c2cncnc2)C2CC2)cc1` (stereo not drawn) [Ancymidol, ancymidol], the “seedling height after 14 days” value in assay [4] (setting [12]) is given as 1-2 cm. In assay [4] (900 plus 1 mg/l ancymidol), the “number of transgenic T0 plantlets compared to the other two treatments (0 and 2 mg/l)” value is “highest”. Moreover, in assay [5], the “Number of: Escapes” value is 3, the “Number of: Events regenerated” value is 7, the “Number of: Leaf segments/pieces responded” value turned out to be 127 and the “Number of: Putative events” value came to 44. Also, in assay [5], the “Number of: RMCE events” value is listed as 1 and the “Number of: SSI events” value worked out at 3. Also, the “seedling height after 14 days” value in [6] (setting [12]) is recorded as 1-2 cm. For the same molecule, in assay [6] (900 plus 1 mg/l ancymidol), the “number of transgenic T0 plantlets compared to the other two treatments (0 and 2 mg/l)” value is “highest”. Further, the “seedling height after 14 days” value in [7] (setting [12]) is reported as 1-2 cm. Also, the “number of transgenic T0 plantlets compared to the other two treatments (0 and 2 mg/l)” value in assay [7] (900 plus 1 mg/l ancymidol) is on record as “highest”.
On to `CC(C)(C)[C@@H](O)[C@@H](Cc1ccc(Cl)cc1)n1cncn1` (racemic) [PBZ, paclobutrazol], for which, in [2] (setting [13]), the “# T0 plants” value was found to be 60, the “# culture response (2 wk)” value is given as 271, the “# culture response (4 wk)” value is listed as 224 and the “T-DNA score (0-5)” value came out at 3.5. Also, the TXN % in assay [2] (setting [13]) is reported as 250%. Further, in assay [2] (setting [14]), the “# T0 plants” value worked out at 40, the “# culture response (2 wk)” value was 212, the “# culture response (4 wk)” value amounted to 156 and the “T-DNA score (0-5)” value is listed as 3.5. In assay [2] (setting [14]), the TXN % was 167%. Further, in [2] (setting [15]), the “# T0 plants” value is reported as 29, the “# culture response (2 wk)” value was 151, the “# culture response (4 wk)” value is on record as 99 and the “T-DNA score (0-5)” value was 3.5. The TXN % in assay [2] (setting [15]) is 121%. In addition, in assay [2] (concentrations tested in Table 24 (paclobutrazol 2-6 mg/l, daminozide 50-150 mg/l)), the “trend in the T0 transformation data” value is “no clear trend”. In addition, the “T0 transformation frequencies relative to the control treatment” value in [2] (higher concentration ranges 10, 20, 50 mg/l, stated in present tense, no data) is reported as “increase”.
As for `C[N+](C)(C)CCCl` [Chlormequat chloride, chlormequat chloride], in assay [2] (setting [16]), the “# T0 plants” value is recorded as 145, the “# culture response (2 wk)” value is 265, the “# culture response (4 wk)” value was 318 and the “T-DNA score (0-5)” value worked out at 4.5. Also, the TXN % in assay [2] (setting [16]) is 483%. The “improvement of T0 transformation frequency (Txn %) relative to the control” value in [2] (250 mg/l pretreatment of ED85E seedlings) came to 1.4 fold. Also, in assay [2] (setting [17]), the “# T0 plants” value is given as 108, the “# culture response (2 wk)” value was 302, the “# culture response (4 wk)” value was determined as 339 and the “T-DNA score (0-5)” value came to 4.5. For the same molecule, the TXN % in [2] (setting [17]) is listed as 360%.
Consider `O=C(COc1ccc(Cl)cc1)N1CCN(Cc2ccc3c(c2)OCO3)CC1` [Fipexide, fipexide], for which the “# culture response (2 wk)” value was found to be 768 in assay [8] (setting [18]), 681 in assay [8] (setting [19]) and 636 in [8] (setting [20]). Moreover, the “# culture response (4 wk)” value in assay [8] (setting [18]) is listed as 829; in assay [8] (setting [19]) it was 780; in assay [8] (setting [20]), 733. Further, the figures for the “T-DNA score (0-5)” value in [8] (setting [18]), in [8] (setting [19]) and in assay [8] (setting [20]) were 4, 3.5 and 3.5, respectively. For the same molecule, the “increase of total somatic embryo (SE) number relative to the control treatment” value in assay [8] (4.75 mg/l) was 1.4 fold; in [8] (9.5 mg/l) it was 1.3 fold; in assay [8] (19 mg/l), 1.2 fold.
For the molecule `O=C(Nc1ccccc1)Nc1cnns1` [TDZ, thidiazuron], in assay [3] (setting [21]), the “# T0 plants” value was determined as 99, the “# culture response (2 wk)” value is reported as 169, the “# culture response (4 wk)” value stood at 121 and the “T-DNA score (0-5)” value was 4. Further, the TXN % in assay [3] (setting [21]) worked out at 471%. Also, in assay [3] (setting [22]), the “# T0 plants” value was 97, the “# culture response (2 wk)” value is listed as 182, the “# culture response (4 wk)” value is given as 122 and the “T-DNA score (0-5)” value worked out at 4. The TXN % in assay [3] (setting [22]) is 462%. In addition, the “change over the control treatment” value in assay [3] (0.1 and 0.5 mg/l) was “no increase”. In assay [3] (higher concentration ranges, such as 1, 2, 5, or 10 mg/l, stated in present tense, no data), the “somatic embryo response and transformation frequency (Txn %)” value was “increase”.
Regarding `OC[C@H]1O[C@H](O[C@H]2[C@H](O)[C@@H](O)C(O)O[C@@H]2CO)[C@H](O)[C@@H](O)[C@@H]1O` (mixture of isomers) [Maltose, maltose], the “improvement of T0 Txn % relative to seedlings grown on 20 mg/l sucrose” value in assay [9] (20 mg/l maltose as the carbon source, inbred GR013D) is given as 1.3 fold. In assay [9] (setting [23]), the “# T0 plants” value was found to be 25, the “# culture response (2 wk)” value came to 650, the “# culture response (4 wk)” value is recorded as 562 and the “T-DNA score (0-5)” value came out at 4. For the same molecule, the TXN % in [9] (setting [23]) is 83%.
As for `c1ccc(CNc2ncnc3nc[nH]c23)cc1` [BAP, 6-benylamino purine], the “increase of T0 Txn % relative to the control seedling germination medium with no cytokinin” value in [3] (1 mg/l) worked out at 1.4 fold. For the same molecule, in assay [3] (setting [10]), the “# T0 plants” value is on record as 97, the “# culture response (2 wk)” value came to 135, the “# culture response (4 wk)” value is on record as 151 and the “T-DNA score (0-5)” value amounted to 4. Besides, in assay [3] (setting [10]), the TXN % was determined as 462%. Besides, the “increase of T0 Txn % relative to the control seedling germination medium with no cytokinin” value in assay [3] (5 mg/l) worked out at 1.8 fold. In assay [3] (setting [24]), the “# T0 plants” value was 128, the “# culture response (2 wk)” value worked out at 144, the “# culture response (4 wk)” value is 172 and the “T-DNA score (0-5)” value amounted to 4. For the same molecule, in assay [3] (setting [24]), the TXN % was 610%.
